Source: patent publication US20080009546A1 (Chevron U.S.A. Inc., priority 2005, published 2008)

Assay: Dissolving compounds to make 10 mM stock solution
Type: physicochemical
Conditions: deionized water or assay friendly solvents, hot water
Experimental: Following assay establishment, the test compounds were tested for binding affinities. The concentrations selected for the experiments were chosen according to what was found for memantine in our assay. The first task was to dissolve the compounds and make up the 10 mM stock solution for further experiments. Those compounds that were made into salt format were easy to dissolve in deionized water, but the other compounds were difficult to bring into solution. Several “assay friendly” solvents have been tried, such as molecusol, acetic acid and propylene glycol followed by putting the vial into hot water.

Row | Compound | dissolution for 10 mM stock solution
1 | O=C(O)C12CC3C4CC5(C(=O)O)CC3C(C1)C(C5)C4C2 [MDT-20] | did not go into solution, or came out with time
2 | O=C(O)C12CC3CC4C1CC1CC2C(C3)C4(C(=O)O)C1 [MDT-19] | did not go into solution, or came out with time
